Measured values published in patent publication US7517857B2, “Immune-modulating peptide” (POSCO, priority 2002, dated 2009).
Where a SMILES comes first, the peptide text is derived from it. [ ]: non-standard residue; d: D form.

Experiments:
Assay type in all cases: cell-based
FPR [1] = molecular target: T1, FPR (Homo sapiens, UniProt P21462); assay: ERK phosphorylation in FPR-expressing RBL-2H3 cells (immunoblot); conditions: pretreatment prior to 1 μM WKYMVm, PTX 100 ng/ml, LY294002 50 μM, GFX 5 μM, BAPTA/AM 10 μM, PD98059 50 μM
T1 construct: expressed in transfected cells; host or cells: RBL-2H3 (rat basophilic leukemia) cells, G418-selected
T1 sequence (P21462 1-350): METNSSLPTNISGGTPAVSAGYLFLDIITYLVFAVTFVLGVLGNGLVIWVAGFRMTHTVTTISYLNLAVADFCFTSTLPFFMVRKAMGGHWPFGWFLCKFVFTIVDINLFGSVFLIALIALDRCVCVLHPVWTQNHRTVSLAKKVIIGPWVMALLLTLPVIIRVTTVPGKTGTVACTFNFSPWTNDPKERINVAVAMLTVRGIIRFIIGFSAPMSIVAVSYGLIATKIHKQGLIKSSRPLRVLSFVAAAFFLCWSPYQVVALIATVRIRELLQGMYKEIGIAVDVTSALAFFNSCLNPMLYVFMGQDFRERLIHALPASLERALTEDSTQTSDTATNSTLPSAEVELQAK
Method: (§1) Cultured RBL-2H3 cells were aliquoted into 2×10^6 cells and stimulated with the indicated concentrations of WKYMVm and the peptides of the present invention for the indicated lengths of time. FPR- or FPRL1-expressing RBL-2H3 cells were stimulated with 1 μM WKYMVm for various periods of time (FIG. 3A). Two cells were preincubated with a vehicle or 100 ng/ml of PTX (24 hr), 50 μM of LY294002 (15 min), 5 μM of GFX (15 min), 10 μM BAPTA/AM (60 min), or 50 μM PD98059 (60 min) prior to 1 μM of WKYMVm treatment (FIG. 3B). FPR- or FPRL1-expressing RBL2H3 cells were stimulated with 10 μM of the peptides of the present invention for 2 min or 5 min, respectively (FIG. 3C).
(§2) After stimulation, the cells were washed with serum-free RPMI and lysed in a lysis buffer (20 mM Hepes, pH 7.2, 10% glycerol, 150 mM NaCl, 1% Triton X-100, 50 mM NaF, 1 mM Na3VO4, 10 μg/ml leupeptin, 10 μg/ml aprotinin, and 1 mM phenylmethylsulfonyl fluoride). The detergent-insoluble materials were pelleted by centrifugation (12,000×g, 15 min, at 4° C.), and the soluble supernatant fraction was removed and stored at −80° C. or used immediately. Protein concentrations in the lysates were determined using the Bradford protein assay reagent.
(§3) Each sample ([…] of protein) was subjected to 10% SDS-PAGE and phosphorylated ERK was determined by an immunoblot analysis with an anti-phospho-ERK antibody. Protein samples were prepared for electrophoresis by addition of a concentrated sample buffer. The portions in the samples were then separated by an 10% SDS-polyacrylamide gel using the buffer system described by Laemmli (17).
(§4) Following the electrophoresis, a western blot analysis with an anti-ERK2 antibody was performed to confirm that the same amounts of samples were used for the experiments. The proteins were blotted onto nitrocellulose membranes. The nitrocellulose membranes were then blocked by incubation with TBS (Tris-buffered saline, 0.05% Tween-20) containing 5% non-fat dry milk. Subsequently, the membranes were incubated with anti-phospho-ERK antibody, anti-phospho-Akt antibody or anti-Akt antibody washed with TBS. For a PKC translocation assay, an antibody for PKC isozyme-specific was incubated. Antigen-antibody complexes were visualized after incubating the membrane with a 1:5000 diluted goat anti-rabbit IgG or goat anti-mouse IgG antibody coupled to horseradish peroxidase and using the enhanced chemiluminescence detection system.

FPRL1 [2] = molecular target: T2, FPRL1 (Homo sapiens, UniProt P25090); assay: ERK phosphorylation in FPRL1-expressing RBL-2H3 cells (immunoblot); conditions: pretreatment prior to 1 μM WKYMVm, PTX 100 ng/ml, LY294002 50 μM, GFX 5 μM, BAPTA/AM 10 μM, PD98059 50 μM
T2 construct: expressed in transfected cells; host or cells: RBL-2H3 (rat basophilic leukemia) cells, G418-selected
T2 sequence (P25090 1-351): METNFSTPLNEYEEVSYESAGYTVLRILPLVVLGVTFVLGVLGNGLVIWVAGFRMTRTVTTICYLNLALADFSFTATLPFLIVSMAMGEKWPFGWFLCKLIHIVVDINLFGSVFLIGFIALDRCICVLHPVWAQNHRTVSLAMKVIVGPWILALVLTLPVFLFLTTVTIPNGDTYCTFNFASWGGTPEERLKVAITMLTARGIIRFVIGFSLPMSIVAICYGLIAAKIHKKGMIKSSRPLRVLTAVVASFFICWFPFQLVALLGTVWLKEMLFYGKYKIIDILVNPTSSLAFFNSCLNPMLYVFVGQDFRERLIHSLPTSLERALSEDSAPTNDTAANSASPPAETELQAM
Method: as §1, §2, §3, §4

FPR [3] = molecular target: T1, FPR; assay: Chemotaxis of FPR-expressing RBL-2H3 cells (modified Boyden chamber); conditions: FPR cells; 50 μM LY294002 (15 min), 50 μM PD98059 (60 min); 1 μM WKYMVm
Method: (§5) Chemotaxis assays were performed using multiwell chambers (modified Boyden chamber assay) (Neuroprobe Inc., Gaithersburg, Md.) (18). Briefly, polycarbonate filters (8 μm pore size) were precoated with 50 μg/ml of rat type I collagen (Collaborative Biomedicals) in a HEPES-buffered RPMI 1640 medium. A dry coated filter was placed on a 96-well chamber containing different concentrations of peptides. RBL-2H3 cells expressing FPR or FPRL1 were suspended in RPMI at a concentration of 1×10^6 cells/ml of serum-free RPMI, and 25 μl of the suspension were placed onto the upper well of the 96-well chemotaxis chamber. After incubation for 4 hours at 37° C., non-migrated cells were removed by scraping them out, and cells that migrated across the filter were dehydrated, fixed, and stained with hematoxylin (Sigma, St. Louis, Mo.). The stained cells in five randomly chosen high power fields (HPF) (400×) in that well were then counted. […] The numbers of migrated cells were determined by counting them in a high power field (400×). The Data are presented as means ±SE of three independent experiments each performed in duplicate. The effect of the peptides of the present invention on cellular chemotaxis in FPR- or FPRL1-expressing RBL-2H3 cells was measured. Various concentrations of each peptide were used for the chemotaxis assay with FPR- or FPRL1-expressing RBL-2H3 cells. The numbers of migrated cells were determined by counting them in a high power field (400×). The Data are presented as means ±SE of two independent experiments each performed in duplicates.

FPRL1 [4] = molecular target: T2, FPRL1; assay: Chemotaxis of FPRL1-expressing RBL-2H3 cells (modified Boyden chamber); conditions: FPRL1 cells; 50 μM LY294002 (15 min), 50 μM PD98059 (60 min); 1 μM WKYMVm
Method: as §5

FPRL1 [5] = molecular target: T2, FPRL1; assay: Exocytosis: β-hexosaminidase secretion in FPRL1-expressing RBL-2H3 cells; conditions: FPRL1 cells; 10 μM of each peptide (WKYMVm also various concentrations)
Method: Granule secretion is one of the most important function of mast cells (20). The effect of WKYMVm on granule secretion was checked by measuring β-hexosaminidase secretion as described above (18). Briefly, RBL-2H3 cells (2×10^5/well) expressing FPR or FPRL1 were cultured overnight in a 24-well tissue culture plate. The cells were washed twice with Tyrode's buffer (137 mM NaCl, 12 mM NaHCO3, 5.6 mM glucose, 2.7 mM KCl, 1 mM CaCl2, 0.5 mM MgCl2, 0.4 mM NaH2PO4, 0.1g/100 ml BSA, and 25 mM HEPES, pH 7.4) and stimulated with each peptide. Various concentrations of WKYMVm were treated in FPR- or FPRL1-expressing RBL-2H3 cells (FIG. 5A). 1 μM of WKYMVm was used to stimulate two cell lines in the absence or presence of 10 μM BAPTA/AM (FIG. 5B). The reaction was terminated 20 min after stimulation by placing the plate on ice. Secretion of β-hexosaminidase into the medium was determined by incubating 50 μl of supernatant or cell lysate with 25 μl of 5 mM p-nitrophenyl-N-acetyl-β-D-glucosamide in 0.1 M sodium citrate buffer (pH 3.8) at 37° C. for 2 hr. At the end of the incubation, 50 μl of 0.4 M Na2CO3 were added. Absorbance was monitored at 405 nm. Data are means ±S.E. of a single representative of three experiments performed in triplicate. Values (means ±S.E.) were expressed as a percent of total β-hexosaminidase present in the cells.
10 μM of each peptide was treated in FPR- (FIG. 6A) or FPRL1-expressing RBL-2H3 cells (FIG. 6B). The peptide-induced secretion of β-hexosaminidase was determined as above. Data are means ±S.E. of a single representative of three experiments performed in triplicate.

human neutrophils = assay: Superoxide generation in human neutrophils (cytochrome c reduction); conditions: for O^2− (nmol/10^6 cells), superoxide generation: cytochrome c reduction
Method: Peripheral blood leukocyte concentrates were donated by the Ulsan Red Cross Blood Center (Ulsan, Korea). Human neutrophils were isolated according to the standard procedures of dextran sedimentation, hypotonic lysis of erythrocytes, and a lymphocyte separation medium gradient as described above (9). The isolated human neutrophils were then used promptly.
The activity of the peptides, WKYMVm, peptides of SEQ ID NOs: 1 to 24, and wkymvm on superoxide generation in human neutrophils was measured. Superoxide anion generation was quantified by measuring reduction of cytochrome c using a microtiter 96-well plate ELISA reader (Bio-Tekinstruments, EL312e, Winooski, Vt.) as described (14). The human neutrophils (1×10^6 cells/100 μl of RPMI 1640 medium per well of a 96-well plate) were preincubated with 50 μM cytochrome c at 37° C. for 1 min and then incubated with the indicated concentrations of peptides. The superoxide generation was measured as a change in light absorption at 550 nm over 5 minutes at 1 min intervals. From at least four independent experiments, peptides with active amino acids at each position were chosen.

FPR [6] = molecular target: T1, FPR; assay: [Ca2+]i increase in FPR-expressing RBL-2H3 cells (fura-2)
FPRL1 [7] = molecular target: T2, FPRL1; assay: [Ca2+]i increase in FPRL1-expressing RBL-2H3 cells (fura-2)
Method: […] The level of [Ca^2+]i was determined fluorometrically by Grynkiewicz's method using fura-2/AM (15). Briefly, prepared cells were incubated with 3 μM fura-2/AM at 37° C. for 50 min in a fresh serum-free RPMI 1640 medium under continuous stirring. 2×10^6 cells were aliquoted for each assay in Ca^2+-free Locke's solution (154 mM NaCl, 5.6 mM KCl, 1.2 mM MgCl2, 5 mM HEPES, pH 7.3, 10 mM glucose, and 0.2 mM EGTA). Fluorescence changes at the dual excitation wavelengths of 340 nm and 380 nm and the emission wavelength of 500 nm were measured, and the calibrated fluorescence ratio was translated into [Ca^2+]i. The peak level of the increased [Ca^2+]i was monitored.
[…] The level of [Ca^2+]i was determined by the same procedures as above. The peak level of the increased [Ca^2+]i was monitored.

CN(C)CCCn1cc(C2=C(c3c[nH]c4ccccc34)C(=O)NC2=O)c2ccccc21 [GF109203X]
effect of inhibitor pretreatment on WKYMVm-induced ERKs activation (FPR [1]): could not effect WKYMVm-induced ERK activation | effect of inhibitor pretreatment on WKYMVm-induced ERKs activation (FPRL1 [2]): could not effect WKYMVm-induced ERK activation

COc1cccc(-c2cc(=O)c3ccccc3o2)c1N [PD98059, reference compound]
effect of inhibitor pretreatment on WKYMVm-induced ERKs activation (FPR [1]): sensitive | effect of inhibitor pretreatment on WKYMVm-induced ERKs activation (FPRL1 [2]): sensitive | effect of inhibitor pretreatment on WKYMVm-induced cellular chemotaxis (FPR [3]): sensitive | effect of inhibitor pretreatment on WKYMVm-induced cellular chemotaxis (FPRL1 [4]): sensitive

CSCC[C@H](NC=O)C(=O)N[C@@H](CC(C)C)C(=O)N[C@@H](Cc1ccccc1)C(=O)O [fMLF, N-formyl-methionyl-leucyl-phenylalanine]
granule secretion / β-hexosaminidase release (words) (FPRL1 [5]): but not fMLF or wkymvm, stimulated granule secretion

Cn1cc(C2=C(c3cn(CCCSC(=N)N)c4ccccc34)C(=O)NC2=O)c2ccccc21 [Ro-31-8220]
effect of inhibitor pretreatment on WKYMVm-induced ERKs activation (FPR [1]): could not effect WKYMVm-induced ERK activation | effect of inhibitor pretreatment on WKYMVm-induced ERKs activation (FPRL1 [2]): could not effect WKYMVm-induced ERK activation

CSCC[C@H](NC(=O)[C@H](Cc1ccccc1)NC(=O)[C@H](CCCCN)NC(=O)[C@@H](N)Cc1c[nH]c2ccccc12)C(=O)N[C@H](C(=O)N[C@H](CCSC)C(N)=O)C(C)C [WKFMVm-NH2, Trp-Lys-Phe-Met-Val-D-Met-NH2] (H-WKFMV[dM]-NH2; N-terminus assumed)
superoxide generating activity (human neutrophils; 100 nM of peptides): stimulated superoxide generation | superoxide generation (human neutrophils; 10 μM concentration): more potent activity than WKYMVm | O^2− (nmol/10^6 cells), superoxide generation (human neutrophils; peptide 100 nM): 37.3 ± 3.56 nmol/10^6 cells | O^2− (nmol/10^6 cells), superoxide generation (human neutrophils; peptide 10 μM): 60.2 ± 5.57 nmol/10^6 cells | [Ca^2+]i increasing activity (FPR [6]): more improved affinity for the FPR against the peptide WKYMVm | [Ca^2+]i increasing activity (FPRL1 [7]): higher affinity to FPRL1
